{"source": "paper PMC12726774", "about": "“HAEEPGP Peptide Efficiently Prevents Alzheimer's Disease Pathology in Vivo” (Alzheimer's & Dementia, 2025)", "key": {"[1]": {"assay": "in vivo", "conditions": "mouse, plasma, iv", "source_text": "(§1) Abstract Background Currently, the only disease‐modifying therapy for Alzheimer's disease (AD) is monoclonal antibodies against beta‐amyloid (Aβ). […] Short peptides could be an alternative treatment to high‐molecular weight antibodies. They have been successfully tested against various neuropathologies. […] The disadvantage of short peptides is their rapid elimination from an organism. In this work, we added PGP amino acids to the HAEE C‐terminus to stabilize the peptide, studied the pharmacokinetics of HAEEPGP and its ability to suppress AD‐associated pathology. Method Direct interaction of HAEEPGP and Aβ peptides was measured by isothermal titration calorimetry. Pharmacokinetics and distribution to tissues of ^125I labeled HAEEPGP were studied after its intravenous injection in C57BL/6 or 5xFAD mice. HAEEPGP ability to prevent Aβ pathological effect on HMC3 microglial cells was assessed by flow cytometry and IL‐6 ELISA kit. HAEEPGP inhibition effect on AD pathology was studied in vivo using two animal models: transgenic C. elegans overexpressing human Aβ and 5xFAD mice. […] Supported by the Russian Science Foundation (grant #19‐74‐30007)."}, "[2]": {"conditions": "background statement, no reference given; cited from earlier work", "source_text": "They have been successfully tested against various neuropathologies. […] The disadvantage ..."}, "[3]": {"conditions": "125I labeled peptide", "source_text": "as §1"}, "[4]": {"biological_target": "Aβ (Homo sapiens, UniProt P05067)", "sequence (P05067 672-713 limits assumed)": "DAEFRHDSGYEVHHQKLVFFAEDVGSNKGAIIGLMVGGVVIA", "assay": "Isothermal titration calorimetry, interaction of HAEEPGP with Aβ", "conditions": "read-out: Kd of binding to Aβ", "source_text": "as §1"}}, "note": "Like-named read-outs stand apart in the source and are kept apart here. Residues, ends and D or L forms follow the SMILES beside them. No end group written: not given here.", "data": [{"compound": "C[C@H](NC(=O)[C@@H](N)Cc1c[nH]cn1)C(=O)N[C@@H](CCC(=O)O)C(=O)N[C@@H](CCC(=O)O)C(=O)O", "note": "[HAEE] (H-HAEE-OH)", "values": [{"measurement": "half-life", "setting": "[1]", "result": 17, "unit": "min"}, {"measurement": "BBB crossing", "setting": "[2]", "result": "able to cross the BBB"}, {"measurement": "toxic effect in vivo", "setting": "[2]", "result": "no toxic effect"}]}, {"compound": "HAEEPGP [HAEEPGP]", "values": [{"measurement": "half-life", "setting": "[1]", "result": "56 ± 12", "unit": "min"}, {"measurement": "BBB crossing", "setting": "[3]; intravenous injection, mice", "result": "propitiously crossed BBB"}, {"measurement": "level in the mice brain over time", "setting": "[3]; during an hour post-injection, intravenous", "result": "constantly increased"}, {"measurement": "level in the brain, 5xFAD vs wild type mice", "setting": "[3]; intravenous, 5xFAD vs C57BL/6", "result": "higher in 5xFAD than in wild type mice"}, {"measurement": "Kd", "setting": "[4]", "result": 1.64, "unit": "µM"}]}]}
